System: CFA inflammatory pain model
Assay: CFA inflammatory pain model, mechanical pain threshold by VonFrey electronic aesthesiometer
Type: in vivo, Sprague-Dawley (SD) rats
Source text: Experimental animals: SPF male Sprague-Dawley (SD) rats, weighing 180±30 g, obtained from Shanghai Sippe-Bk Lab Animal Co., Ltd. Experimental samples: Compounds 1, 2, and 3 and CCPA were used to prepare the corresponding pharmaceutical compositions according to the following formulation amounts and method. [table] Preparation method: Formulation amounts of compounds 1, 2, and 3 and CCPA were separately weighed out, added to a proper amount of tert-butanol/water mixed solution, and dissolved by stirring. Then formulation amounts of dimyristoylphosphatidylcholine (DMPC) and cholesterol were added and dissolved by stirring. The above solutions were made up to volume (25-40 mL), added to vials, and lyophilized in a lyophilizer for later use. When used, the lyophilizates were dissolved in normal saline to 1 mg/mL, 2 mg/mL, 4 mg/mL, and 8 mg/mL. SD rats, 6 to 8-week-old and weighing 150 g-200 g, were divided into a control group, a model control group, and an administration group. A CFA inflammatory pain model was obtained 24 h after 100 μL of complete Freund's adjuvant was injected into the soles of the left feet of the rats in the model control group and the administration group. The injection was performed at left Zusanli, and the injection volume was 100 μL. [table] Note: For the control group, 100 μL of normal saline was injected into the soles of the feet. For the model control group, 100 μL of normal saline was injected into Zusanli after the model was successfully established. A VonFrey electronic aesthesiometer was used to measure the pain threshold, and mechanical pain was used as an evaluation index. Observations of the basal pain threshold were started 1 day before the model was established and ended 14 days after the model was established. Pain thresholds before and after administration for different groups of animals were plotted using Graph Pad Prism 8.3.0 software. Based on the dose-response curve 48 h after administration, the EC50 and EC90 were obtained through fitting.

EC50 change compared to CCPA (compared to CCPA): 4 fold
EC90 change compared to CCPA (compared to CCPA): 6 fold
EC50 change compared to compound 2 (compared to compound 2): ~3 fold
EC90 change compared to compound 2 (compared to compound 2): ~3 fold
Structure (SMILES): CCCCCCCCCCCCCCC(=O)OC[C@H]1O[C@@H](n2cnc3c(NC4CCCC4)nc(Cl)nc32)[C@H](O)[C@@H]1O [Compound 1, ((2R,3S,4R,5R)-5-(2-Chloro-6-(cyclopentylamino)-9H-purin-9-yl)-3,4-dihydroxytetrahydrofuran-2-yl)methyl pentadecanoate]

From patent publication US20250361261A1, “CYCLOPENTYL ADENOSINE DERIVATIVE AND PHARMACEUTICAL USE THEREOF” (priority 2022, published 2025)
